# Laboratory results published in publication PMC7143538, “New Thiodiketopiperazine and 3,4-Dihydroisocoumarin Derivatives from the Marine-Derived Fungus Aspergillus terreus” (Marine Drugs, 2020).
# Biological target: T1, protein tyrosine phosphatase 1 B (PTP1B) (Homo sapiens, UniProt P18031)
# T1 construct: gene PTPN1
# T1 sequence (P18031 1-435): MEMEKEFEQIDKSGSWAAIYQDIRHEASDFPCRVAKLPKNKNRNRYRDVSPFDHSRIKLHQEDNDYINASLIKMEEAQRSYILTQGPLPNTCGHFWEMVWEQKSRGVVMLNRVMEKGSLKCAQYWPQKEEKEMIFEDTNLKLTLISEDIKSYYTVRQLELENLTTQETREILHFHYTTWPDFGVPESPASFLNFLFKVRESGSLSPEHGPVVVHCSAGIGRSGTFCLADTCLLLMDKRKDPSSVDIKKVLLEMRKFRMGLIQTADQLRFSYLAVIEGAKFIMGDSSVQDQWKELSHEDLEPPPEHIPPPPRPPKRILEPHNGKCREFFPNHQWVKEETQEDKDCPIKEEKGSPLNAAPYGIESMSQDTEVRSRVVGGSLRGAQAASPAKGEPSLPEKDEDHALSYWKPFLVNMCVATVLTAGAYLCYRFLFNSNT
# Test: pNPP phosphatase assay, human recombinant PTP1B, absorbance at […] nm
# Format: biochemical
row,SMILES,IC50 [µM]
1,"CS[C@@]1(Cc2ccccc2)NC(=O)[C@@](Cc2ccccc2O)(SC)NC1=O [compound 3, emethacin C]",12.3
2,"CS[C@@]12CC3=CC=C[C@H](OC(C)=O)[C@H]3N1C(=O)[C@]1(SC)CC3=COC=C[C@H](OC(C)=O)[C@H]3N1C2=O [compound 5, bisdethiobis(methylsulfanyl)acetylapoaranotin]",25.7
3,"CS[C@@]12CC3=COC=C[C@H](OC(C)=O)[C@H]3N1C[C@]1(SC)CC3=COC=C[C@H](O)[C@H]3N1C2 [compound 7, alternarosin A]",24.3
